In ChEMBL document CHEMBL5584201, “Amphiphilic tribasic galactosamines potentiate rifampicin in Gram-negative bacteria at low Mg++/Ca++concentrations” (Bioorg Med Chem Lett, 2024):

How the values were obtained:
Type in all cases: functional
Pseudomonas aeruginosa [1] = experiment: Potentiation of rifampicin-induced antibacterial activity against Pseudomonas aeruginosa PAO1 assessed as fold change in rifampicin MIC in low salt containing media by Mueller-Hinton broth based assay
Pseudomonas aeruginosa [2] = experiment: Antibacterial activity against Pseudomonas aeruginosa PAO1 in low salt containing media by Mueller-Hinton broth based assay
Acinetobacter baumannii [3] = experiment: Potentiation of rifampicin-induced antibacterial activity against Acinetobacter baumannii ATCC 17978 assessed as fold change in rifampicin MIC in low salt containing media by Mueller-Hinton broth based assay
Pseudomonas aeruginosa [4] = experiment: Potentiation of rifampicin-induced antibacterial activity against Pseudomonas aeruginosa PAO1 assessed as rifampicin MIC in low salt containing media by Mueller-Hinton broth based assay
Escherichia coli [5] = experiment: Antibacterial activity against Escherichia coli ATCC 25922 in low salt containing media by Mueller-Hinton broth based assay
Acinetobacter baumannii [6] = experiment: Antibacterial activity against Acinetobacter baumannii ATCC 17978 in low salt containing media by Mueller-Hinton broth based assay
Escherichia coli [7] = experiment: Potentiation of rifampicin-induced antibacterial activity against Escherichia coli ATCC 25922 assessed as fold change in rifampicin MIC in low salt containing media by Mueller-Hinton broth based assay
Escherichia coli [8] = experiment: Potentiation of rifampicin-induced antibacterial activity against Escherichia coli ATCC 25922 assessed as rifampicin MIC in low salt containing media by Mueller-Hinton broth based assay
Acinetobacter baumannii [9] = experiment: Potentiation of rifampicin-induced antibacterial activity against Acinetobacter baumannii ATCC 17978 assessed as rifampicin MIC in low salt containing media by Mueller-Hinton broth based assay

SMILES: CCCCCCCCO[C@@H]1O[C@H](CN)[C@H](N)[C@H](OCc2ccc3cccnc3c2)[C@H]1N
- fold change (FC) (Pseudomonas aeruginosa [1]): 2
- MIC (Pseudomonas aeruginosa [2]): > 128 µg/mL
- fold change (FC) (Acinetobacter baumannii [3]): 64
- MIC (Pseudomonas aeruginosa [4]): 8 µg/mL
- MIC (Escherichia coli [5]): 64 µg/mL
- MIC (Acinetobacter baumannii [6]): 128 µg/mL
- fold change (FC) (Escherichia coli [7]): 32
- MIC (Escherichia coli [8]): 8 µg/mL
- MIC (Acinetobacter baumannii [9]): 8 µg/mL

SMILES: CCCCCCO[C@@H]1O[C@H](CN)[C@H](N)[C@H](OCc2ccc3ccccc3c2)[C@H]1N
- fold change (FC) (Pseudomonas aeruginosa [1]): 1
- MIC (Pseudomonas aeruginosa [2]): > 128 µg/mL
- fold change (FC) (Acinetobacter baumannii [3]): 32
- MIC (Pseudomonas aeruginosa [4]): 16 µg/mL
- MIC (Escherichia coli [5]): 64 µg/mL
- MIC (Acinetobacter baumannii [6]): 128 µg/mL
- fold change (FC) (Escherichia coli [7]): 32
- MIC (Escherichia coli [8]): 16 µg/mL
- MIC (Acinetobacter baumannii [9]): 16 µg/mL
